{"source": "patent US20250308625A1", "about": "“METHOD FOR ESTIMATING A DYNAMIC MOLECULAR PROGRAM OF A CELL” (Yale University, priority 2022, published 2025)", "target": "T1, ESRRA (Homo sapiens, UniProt P11474)", "T1 construct": "endogenous in cells; host or cells: HCC38 CD44hi cells (2D culture)", "T1 sequence (P11474 1-423)": "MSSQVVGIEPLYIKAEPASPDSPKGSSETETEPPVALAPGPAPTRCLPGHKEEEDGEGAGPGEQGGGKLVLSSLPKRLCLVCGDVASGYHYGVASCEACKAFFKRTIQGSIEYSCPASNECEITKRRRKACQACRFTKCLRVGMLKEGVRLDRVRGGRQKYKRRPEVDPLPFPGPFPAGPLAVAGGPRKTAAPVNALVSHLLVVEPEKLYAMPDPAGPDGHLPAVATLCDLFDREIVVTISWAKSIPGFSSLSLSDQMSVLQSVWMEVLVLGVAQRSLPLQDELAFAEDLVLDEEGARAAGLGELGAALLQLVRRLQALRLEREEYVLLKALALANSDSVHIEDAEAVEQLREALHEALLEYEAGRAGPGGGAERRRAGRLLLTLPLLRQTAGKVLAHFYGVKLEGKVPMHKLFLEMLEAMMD", "assay": "Western blot of CDH1 expression after ESRRA knockdown (siRNA) or ESRRA inhibition (C14) in 2D cultured HCC38 CD44hi cells", "format": "cell-based", "settings": "2D culture, C14 at 5 and 10 μM vs DMSO, 48 hours post-treatment, normalized to β-Actin, n=3, p≤0.05", "experimental": "Preliminary validation of the MET network included an in-vitro knockdown of ESRRA in HCC38 CD44^hi cells (n=3 biological replicates). Predesigned siRNA specific to ESRRA and scrambled siRNA were purchased from Integrated DNA Technologies, USA (TriFECTa® RNAi Kit, Design ID hs.Ri.ESRRA.13). HCC38 CD44^hi cells were seeded in 24 well plates at a density of 9000 cells/well and ESRRA knockdown was performed using 10 nM of pooled siRNA (hs.Ri.ESRRA.13.1, hs.Ri.ESRRA.13.2 and hs.Ri.ESRRA.13.3) using Lipofectamine RNAiMax (ThermoFisher Scientific, USA) as per the manufacturer's protocol. Cells were harvested for protein extraction 48 hrs post siRNA transfection to study the downstream effect on CDH1 expression upon ESRRA knockdown using western blot. […]\nProteins were extracted from control and treated cells using ice cold modified RIPA buffer (50 mM Tris-HCl pH 7.5, 150 mM NaCl, 1 mM EDTA, 1 mM EGTA, 1% Triton X-100, 0.1% SDS with supplemented with 1× protease and phosphatase inhibitor cocktails). […] Proteins were quantified using the Pierce™ BCA Protein Assay Kit (Cat. 23227, Thermo Fisher Scientific, USA) as per the manufacturer's instructions. […] The signal intensity of the bands in western blots was quantified using Image Studio Lite version 5.2 (LI-COR Biotechnology, USA).", "data": [{"smiles": "CC(C)c1cccc(-n2cc(C(=O)c3ccccc3N)nn2)c1", "note": "[ESRRA antagonist, (2-Aminophenyl) (1-(3-isopropylphenyl)-1H-1,2,3-triazol-4-yl) methanone]", "values": [{"measurement": "CDH1 expression (western blot, relative fold-change)", "value": "significant increase"}]}]}
